What all share (type): cell-based
In one assay the target is Amylin Receptor (Homo sapiens, UniProt O60896+P30988). Nature of the assay: Amylin Receptor cAMP stimulation, assay version (I or II) not marked. The settings on record: values without footnote mark; assay I or II not stated. Here is the method:
To optimize functional activity directed toward Gas coupling, COS-7 cells were stably transfected with human calcitonin receptor (CTR) and RAMP3, simultaneously. 100× concentration of compound working solutions were prepared (Agilent Technologies Bravo) with 4-fold serial dilution in 384-well Echo LDV plate (Labcyte, Cat #LP-0200). 100 nL/well 100× concentration of compound working solutions were moved to 384-well white low volume plate (Greiner, Cat #784075) using Labcyte ECHO550. 1×10^5 cells/mL COS-7/CTR or COS-7/AMY3 (HD Biosciences) cell suspensions prepared with assay buffer [DPBS containing 0.5 mM IBMX (Sigma, Cat #15879) and 0.1% BSA (GENVIEW, Cat #FA016-100 g)], 10 μL cell suspensions were added to each well of previous generated assay plate which already contains 100 nL compound at 100× concentration using ThermoFisher Multidrop Combi (1000 cells/well). Seal the plate and incubate at 37° C. with 5% CO2 for 30 min.
After incubation, the cAMP assay signal was generated using cAMP Hi-range Kit (Cisbio). 5 μL cAMP-d2 working solution was added to each well, followed by 5 μL Anti-cAMP antibody-cryptate working solution which was added to each well using ThermoFisher Multidrop Combi. The samples were then incubated at room temperature for 1 hour protected from light. the fluorescence was read at 665 and 615 nm with Reader PerkinElmer EnVision.
(§1) To optimize functional activity directed toward Gas coupling, COS-7 cells were stably transfected with human calcitonin receptor (CTR) and RAMP3, simultaneously. 100× concentration of compound working solutions were prepared with 4-fold serial dilution in 384-well Echo LDV plate (Labcyte, Cat #LP-0200-BC). 200 nL/well 100× concentration of compound working solutions were moved to 384-well white microplate (Perkin Elmer, Cat #6007680) using Labcyte ECHO550. 1×10^5 cells/mL COS-7/AMY3 cell suspensions prepared with assay buffer [HBSS containing 20 mM HEPES (Gibco, Cat #15630-080), 0.5 mM IBMX (Sigma, Cat #15879) and 0.1% Casein (Sigma, Cat #C4765)], 20 μL cell suspensions were added to each well of previous generated assay plate which already contains 200 nL compound at 100× concentration using ThermoFisher Multidrop Combi (2000 cells/well). Seal the plate and incubate at 37° C. with 5% CO2 for 30 min.
After incubation, the cAMP assay signal was generated using cAMP dynamic 2 kit (Revvity, Cat #62AM4PEC). 10 μL cAMP-d2 working solution was added to each well, followed by 10 μL Anti-cAMP antibody-cryptate working solution which was added to each well using CERTUS FLEX LIQUID DISPENSER. The samples were then incubated at room temperature for 1 hour protected from light. the fluorescence was read at 665 and 615 nm with Reader PerkinElmer EnVision 2105.

The target in assay [1] is human calcitonin receptor (CTR) and RAMP3 (AMY3) in COS-7 cells (Homo sapiens, UniProt O60896+P30988). Nature of the assay: Amylin Receptor cAMP Assay I. The settings on record: values marked *: Amylin Receptor cAMP Assay I; COS-7/AMY3 cells; read-out: Amylin Receptor cAMP Stimulation Activity: EC50. In a few lines:
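COS-7 cells stably co-expressing human CTR and RAMP3 (AMY3) were stimulated with serially diluted compounds (4-fold) in DPBS with 0.5 mM IBMX and 0.1% BSA for 30 min at 37 °C, 1000 cells/well. cAMP accumulation was measured by HTRF (cAMP-d2/anti-cAMP cryptate, 1 h RT) read at 665/615 nm.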

Assay [2] concerns the target T1, human calcitonin receptor (CTR) in COS-7 cells (Homo sapiens, UniProt P30988).
T1 construct: expressed in transfected cells; host or cells: COS-7 (COS7-human CTR Clone #2)
T1 sequence (P30988 25-474): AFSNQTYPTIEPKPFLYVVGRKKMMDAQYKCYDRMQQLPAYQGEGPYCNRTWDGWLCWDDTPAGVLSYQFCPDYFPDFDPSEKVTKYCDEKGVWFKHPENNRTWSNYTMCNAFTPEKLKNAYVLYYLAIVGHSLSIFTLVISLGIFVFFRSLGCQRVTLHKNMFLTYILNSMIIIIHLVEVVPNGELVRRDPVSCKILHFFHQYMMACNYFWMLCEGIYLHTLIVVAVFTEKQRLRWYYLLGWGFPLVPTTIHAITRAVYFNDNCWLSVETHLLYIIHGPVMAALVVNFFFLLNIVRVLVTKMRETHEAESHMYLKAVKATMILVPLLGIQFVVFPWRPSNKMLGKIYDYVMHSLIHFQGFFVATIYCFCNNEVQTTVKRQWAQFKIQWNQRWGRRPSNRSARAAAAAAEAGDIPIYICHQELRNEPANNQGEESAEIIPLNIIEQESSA
Nature of the assay: Calcitonin Receptor (CTR) cAMP Assay. The settings on record: COS7-human CTR Clone #2 cells; read-out: Calcitonin Receptor cAMP Stimulation Activity: EC50.
From the text: Calcitonin Receptor (CTR) cAMP Assay
The calcitonin receptor (CTR) belongs to the subfamily of GPCRs known as the secretin or ‘B’ family of GPCRs. Like other class B1 GPCRs, the CT receptor family is canonically coupled to Gs-mediated cAMP production, and measurement of cAMP accumulation has been the primary assay used to determine peptide selectivity and potency.
as §1, with “to create COS7-human CTR Clone #2 stable cell line.” for “and RAMP3, simultaneously.”, “COS7-human CTR Clone #2” for “COS-7/AMY3”
After incubation, the cAMP assay signal was generated using cAMP dynamic 2 kit (Revvity, Cat #62AM4PEC). 10 μL cAMP-d2 working solution was added to each well, followed by […] Anti-cAMP antibody-cryptate working solution which was added to each well using CERTUS FLEX LIQUID DISPENSER. The samples were then incubated at room temperature for 1 hour protected from light. the fluorescence was read at 665 and 615 nm with Reader PerkinElmer EnVision 2105.

Each structure is given as a SMILES string. pEC50: −log10 of the molar value.

Amylin Receptor, sequence (O60896 24-148, one chain of several): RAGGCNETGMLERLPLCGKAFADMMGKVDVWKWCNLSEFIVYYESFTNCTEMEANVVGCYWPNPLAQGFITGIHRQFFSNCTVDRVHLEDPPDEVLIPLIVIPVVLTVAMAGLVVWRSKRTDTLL
human calcitonin receptor (CTR) and RAMP3 (AMY3) in COS-7 cells, sequence (O60896 24-148, one chain of several): as above

Broadly, the pEC50 is −log10 of the EC50, conventionally taken in molar units. At Amylin Receptor, `Cc1nnc(-c2c(CCc3ccc(F)cc3)nc(CC(C)C)c(C(N)=O)c2-c2cc3ccnc(NCc4cncc(F)c4)c3s2)o1` [Compound 206, 6-[2-(p-fluorophenyl)ethyl]-4-(7-{[(5-fluoro-3-pyridyl)methyl]amino}-1-thia-6-aza-2-indenyl)-2-isobutyl-5-(5-methyl-1,3,4-oxadiazol-2-yl)nicotinamide] gave a pEC50 of 7.38. Regarding `Cc1nnc(-c2c(C34CC(C(F)F)(C3)C4)nc(CC(C)C)c(C(N)=O)c2-c2ccc(C(=O)NCc3ccc(F)c(F)c3)s2)o1` [Compound 190, 4-(5-((3,4-difluorobenzyl)carbamoyl)thiophen-2-yl)-6-(3-(difluoromethyl)bicyclo[1.1.1]pentan-1-yl)-2-isobutyl-5-(5-methyl-1,3,4-oxadiazol-2-yl)nicotinamide], the pEC50 in assay [1] was 5.39; in assay [2], 6.13. In the case of `Cc1cnc(-c2c(CCC3CCOCC3)nc(CC(C)C)c(C(N)=O)c2-c2cc3ccnc(N[C@@H]4CCc5ncccc54)c3s2)o1` [Compound 207, 4-{7-[(R)-4-aza-1-indanylamino]-1-thia-6-aza-2-indenyl}-2-isobutyl-5-(5-methyl-1,3-oxazol-2-yl)-6-[2-(tetrahydro-2H-pyran-4-yl)ethyl]nicotinamide], on Amylin Receptor, the pEC50 is 7.19. Take `COc1cccc2c1CC[C@H]2NC(=O)c1ccc(-c2c(C(N)=O)c(CC(C)C)nc(CCc3ccc(F)cc3)c2-c2nnc(C)o2)s1` [Compound 122, (R)-6-(4-fluorophenethyl)-2-isobutyl-4-(5-((4-methoxy-2,3-dihydro-1H-inden-1-yl)carbamoyl)thiophen-2-yl)-5-(5-methyl-1,3,4-oxadiazol-2-yl)nicotinamide]: the negative-log EC50 (pEC50) is 9.10 in assay [1] and 9.14 in assay [2]. For `Cc1nnc(-c2c(CCc3ccc(F)cc3)nc(CC(C)C)c(C(N)=O)c2-c2cc3ccnc(NCc4ccc(F)c(F)c4)c3s2)o1` [Compound 131, 4-(7-{[(3,4-difluorophenyl)methyl]amino}-1-thia-6-aza-2-indenyl)-6-[2-(p-fluorophenyl)ethyl]-2-isobutyl-5-(5-methyl-1,3,4-oxadiazol-2-yl)nicotinamide] the same measures were 8.36 and 9.48.

Regarding `CCc1nc(CC(C)C)c(C(N)=O)c(-c2cc3ccnc(N[C@@H]4CCc5cc(F)ccc54)c3s2)c1-c1nnc(C)o1` [Compound 188, (R)-6-ethyl-4-(7-((5-fluoro-2,3-dihydro-1H-inden-1-yl)amino)thieno[2,3-c]pyridin-2-yl)-2-isobutyl-5-(5-methyl-1,3,4-oxadiazol-2-yl)nicotinamide], the pEC50 in assay [1] is 7.44; in assay [2], 8.09. At Amylin Receptor, `CCc1nc(CC(C)C)c(C(N)=O)c(-c2cc3ccnc(N[C@@H]4CCc5ccc(F)cc54)c3s2)c1-c1nnc(C)o1` [Compound 209, 4-{7-[(R)-6-fluoro-1-indanylamino]-1-thia-6-aza-2-indenyl}-6-ethyl-2-isobutyl-5-(5-methyl-1,3,4-oxadiazol-2-yl)nicotinamide] showed a pEC50 of 7.01. Regarding `Cc1nnc(-c2c(CCc3ccc(F)cc3)nc(CC(C)C)c(C(N)=O)c2-c2ccc(C(=O)NCc3ccc(F)c(F)c3)s2)o1` [Compound 107, N-(3,4-difluorophenyl)methyl-5-{5-carbamoyl-2-[2-(p-fluorophenyl)ethyl]-6-isobutyl-3-(5-methyl-1,3,4-oxadiazol-2-yl)-4-pyridyl}-2-thenamide], the pEC50 in assay [1] is 8.18; in assay [2], 8.80. With `Cc1nnc(-c2c(CCc3ccc(F)cc3)nc(CC(C)C)c(C(N)=O)c2-c2ccc3c(c2)CCC3OCc2ccc(F)c(F)c2)o1` (stereo not shown) [Compound 142, 4-{1-[(3,4-difluorophenyl)methoxy]-5-indanyl}-6-[2-(p-fluorophenyl)ethyl]-2-isobutyl-5-(5-methyl-1,3,4-oxadiazol-2-yl)nicotinamide], the pEC50 in assay [1] was 7.03; in assay [2], 8.06. In the same order, the values of `Cc1nnc(-c2c(CC34CC(C(F)F)(C3)C4)nc(CC(C)C)c(C(N)=O)c2-c2ccc(C(=O)NCc3ccc(F)c(F)c3)s2)o1` [Compound 203, 4-(5-((3,4-difluorobenzyl)carbamoyl)thiophen-2-yl)-6-((3-(difluoromethyl)bicyclo[1.1.1]pentan-1-yl)methyl)-2-isobutyl-5-(5-methyl-1,3,4-oxadiazol-2-yl)nicotinamide] are 6.03 and 7.19.

For the molecule `Cc1nnc(-c2c(CCc3ccc(F)cc3)nc(CC(C)C)c(C(N)=O)c2-c2ccc(C(=O)N[C@@H]3CCc4ccccc43)s2)o1` [Compound 106, N—[(R)-1-indanyl]-5-{5-carbamoyl-2-[2-(p-fluorophenyl)ethyl]-6-isobutyl-3-(5-methyl-1,3,4-oxadiazol-2-yl)-4-pyridyl}-2-thenamide], the figures for the pEC50 in assay [1] and in assay [2] were 8.39 and 8.68, respectively. For `Cc1nnc(-c2c(CCc3ccc(F)cc3)nc(CC(C)C)c(C(N)=O)c2-c2ccc3c(c2)CCCN3CCc2ccc(F)c(F)c2)o1` [Compound 174, 4-(1-(3,4-difluorophenethyl)-1,2,3,4-tetrahydroquinolin-6-yl)-6-(4-fluorophenethyl)-2-isobutyl-5-(5-methyl-1,3,4-oxadiazol-2-yl)nicotinamide] the same measures were 6.97 and 8.24. `Cc1nnc(-c2c(COc3ccc(F)cc3)nc(CC(C)C)c(C(N)=O)c2-c2ccc(C(=O)N[C@@H]3CCc4ccccc43)s2)o1` [Compound 210, N—[(R)-1-indanyl]-5-{3-carbamoyl-6-[(p-fluorophenoxy)methyl]-2-isobutyl-5-(5-methyl-1,3,4-oxadiazol-2-yl)-4-pyridyl}-2-thenamide] had a pEC50 at Amylin Receptor of 6.26.

The record behind these values is patent US20250042916A1 (ACONCAGUA BIO, INC., priority 2023, published 2025).
